Laboratory results published in PMC7466040, “Sevanol and Its Analogues: Chemical Synthesis, Biological Effects and Molecular Docking” (Pharmaceuticals, 2020).
One block for each compound: values may come before it.

Legend:
ASIC1a = test system: ASIC1a; set-up: method as in PMID 25196733; settings: cited from earlier work
ASIC currents = test system: ASIC currents; set-up: method as in PMID 16061325; settings: read-out: IC50, non-selective inhibition of ASIC currents; cited from earlier work
[1] = test system: all of the functional isoforms of ASICs; set-up: method as in PMID 9261094; settings: read-out: IC50, inhibition of ASICs; cited from earlier work
rat ASIC1a = target: T1, rat ASIC1a (Rattus norvegicus, UniProt P55926); assay: Two-electrode voltage clamp on X. laevis oocytes expressing rat ASIC1a; format: cell-based; settings: for IC50: X. laevis oocytes, pH drop 7.4 to 5.5, holding potential −50 mV, mean ± SEM of 5–6, read-out: IC50, inhibition of ASIC1a current; for maximal current block, ASIC1a: effect reversible
T1 construct: expressed in transfected cells; host or cells: Xenopus laevis oocytes (cRNA injection)
T1 sequence (P55926 1-526): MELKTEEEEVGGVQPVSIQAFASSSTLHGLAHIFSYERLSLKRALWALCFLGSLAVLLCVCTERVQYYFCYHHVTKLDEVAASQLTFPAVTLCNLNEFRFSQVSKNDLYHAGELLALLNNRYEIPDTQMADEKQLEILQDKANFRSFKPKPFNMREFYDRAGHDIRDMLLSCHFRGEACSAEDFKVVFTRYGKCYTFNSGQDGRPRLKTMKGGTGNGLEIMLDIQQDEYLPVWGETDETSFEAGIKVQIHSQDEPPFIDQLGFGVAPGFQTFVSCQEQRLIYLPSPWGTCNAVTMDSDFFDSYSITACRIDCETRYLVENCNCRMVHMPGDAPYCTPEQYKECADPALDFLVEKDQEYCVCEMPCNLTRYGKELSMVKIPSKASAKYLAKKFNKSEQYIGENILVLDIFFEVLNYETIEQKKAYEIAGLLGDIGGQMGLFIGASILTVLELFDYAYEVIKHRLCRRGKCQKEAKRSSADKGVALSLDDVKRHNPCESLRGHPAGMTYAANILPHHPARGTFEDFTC
Procedure: (§1) Testing the activity of synthetic sevanol (s706) (as a mixture of 75% of sevanol and 25% of isosevanol) and its analogues (s590, EA, and s788) was carried out by the standard two-electrode voltage clamp method on X. laevis oocytes expressing rat ASIC1a and ASIC3 channels. The activation of the channels was performed using a rapid change of the solution from conditioning pH 7.4 to a solution with pH 5.5. Sevanol and its two analogues, s590 and EA, inhibited ASIC1a and ASIC3 channels.
(§2) Oocytes were harvested from female frogs anaesthetized with tricaine methane sulfonate (MS222) (0.17% solution), and the surgery was performed in an ice bath to avoid heavy bleeding. Defolliculated stage IV and V cells were injected with 2.5 and 10 ng cRNA, synthesized from PCi plasmids containing the rat ASIC1a and rat ASIC3 isoforms, respectively, using the Nanoliter 2000 microinjection system (World Precision Instruments, USA). The injected oocytes were kept for 2–3 days at 17 to 19 °C, and then for up to 5 days at 15 °C in a ND96 medium containing (in mM) 96 NaCl, 2 KCl, 1.8 CaCl2, 1 MgCl2, and 5 HEPES titrated to pH 7.4 with NaOH supplemented with gentamycin (50 μg/mL). Two-electrode voltage clamp recordings were performed at a holding potential of −50 mV using a GeneClamp 500 amplifier (Axon Instruments), and the data were filtered at 20 Hz and digitized at 100 Hz by an AD converter L780 (LCard, Russia). Microelectrodes were filled with 3 M KCl. The conditioning bath solution was ND96; the pH was adjusted to 7.4. The activating test solution was constructed based on the ND-96 buffer, in which 5 mM HEPES was replaced with 10 mM MES and pH was adjusted to 5.5. A computer-controlled valve system was used to achieve a rapid solution exchange in the recording chamber. A four parameter logistic equation was used for the curve-fitting analysis: F(x) = ((a1 − a2)/(1 + (x/x0)n)) + a2, where x is the concentration of the compound; F(x) is the response value at a given concentration of the compound; a1 is the control response value (fixed at 100%); x0 is the IC50 value; n is the Hill coefficient (slope factor); and a2 is the response value at the maximal inhibition (% of control).
(§3) Figure 2 The inhibitory activity of sevanol (s706) and its analogues. Currents were elicited by a drop from pH 7.4 to 5.5; the holding potential was −50 mV; (A,C) are dose–response curves for s706, s590 and EA inhibitory effects on ASIC1a and ASIC3 channels, respectively; (B,D) are reciprocal IC50 values for s706, s590 and EA inhibitory effects on ASIC1a and ASIC3 channels, respectively. The data were fitted by the logistic equation. Each point is the mean ± SEM of 5–6 measurements. * p < 0.05, ** p < 0.005.

rat ASIC3 = target: T2, rat ASIC3 (Rattus norvegicus, UniProt O35240); assay: Two-electrode voltage clamp on X. laevis oocytes expressing rat ASIC3; format: cell-based; settings: for IC50: X. laevis oocytes, pH drop 7.4 to 5.5, holding potential −50 mV, mean ± SEM of 5–6, read-out: IC50, inhibition of ASIC3 current; for maximal current block, ASIC3: effect reversible
T2 construct: expressed in transfected cells; host or cells: Xenopus laevis oocytes (cRNA injection)
T2 sequence (O35240 1-533): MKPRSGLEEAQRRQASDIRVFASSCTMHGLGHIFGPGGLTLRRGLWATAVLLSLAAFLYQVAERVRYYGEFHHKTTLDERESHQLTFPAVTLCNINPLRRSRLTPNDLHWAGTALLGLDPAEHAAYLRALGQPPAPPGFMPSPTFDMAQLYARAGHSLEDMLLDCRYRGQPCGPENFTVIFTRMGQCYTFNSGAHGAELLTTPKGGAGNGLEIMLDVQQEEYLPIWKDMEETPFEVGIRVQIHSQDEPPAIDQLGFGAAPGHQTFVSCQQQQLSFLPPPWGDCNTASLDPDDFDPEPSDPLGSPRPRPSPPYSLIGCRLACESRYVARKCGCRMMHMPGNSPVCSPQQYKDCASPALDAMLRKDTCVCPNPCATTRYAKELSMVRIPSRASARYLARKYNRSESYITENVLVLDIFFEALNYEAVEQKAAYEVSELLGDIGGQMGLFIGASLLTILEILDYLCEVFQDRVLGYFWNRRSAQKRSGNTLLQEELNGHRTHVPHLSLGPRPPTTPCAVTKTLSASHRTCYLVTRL
Procedure: as §1, §2, §3

[2] = test system: ASIC3-containing channels; set-up: method as in PMID 11588175; settings: read-out: IC50, inhibition of ASIC3-containing channels; cited from earlier work
[3] = test system: ASIC1a-containing channels; set-up: method as in PMID 11588175; settings: read-out: IC50, inhibition of ASIC1a-containing channels; cited from earlier work

SMILES: Nc1c2ccccc2nc2ccccc12 [9-aminoacridine]
inhibition of ASIC1a (ASIC1a): inhibit ASIC1a in submillimolar concentrations

SMILES: CC(C)C1c2cc(C3CC3c3ccc4cc(C(=N)N)ccc4c3)ccc2CCN1C (stereo not shown) [A-317567]
IC50 (ASIC currents): 2 to 30 µM

SMILES: N=C(N)NC(=O)c1nc(Cl)c(N)nc1N [Amiloride]
IC50 [1]: 10 to 60 µM

IC50 (rat ASIC1a): 415 ± 66 µM | maximal current block, ASIC1a (rat ASIC1a; pH 7.4 to 5.5): 100% | IC50 (rat ASIC3): 424 ± 33 µM | maximal current block, ASIC3 (rat ASIC3; pH 7.4 to 5.5): 100%
SMILES: O=C(O)C1=Cc2cc(O)c(O)cc2[C@@H](c2ccc(O)c(O)c2)[C@@H]1C(=O)O [EA, epiphyllic acid]
effectiveness in inhibiting ASIC3 relative to ASIC1a (rat ASIC3; ratio of ASIC1a and ASIC3 inhibition): acted equally on the ASIC1a and ASIC3 channels

SMILES: CC(=O)Oc1ccccc1C(=O)O [aspirin]
IC50 [2]: 260 µM

SMILES: O=C(O)Cc1ccccc1Nc1c(Cl)cccc1Cl [diclofenac]
IC50 [2]: 92 µM

SMILES: CC(C(=O)O)c1ccc(-c2ccccc2)c(F)c1 (stereo not shown) [flurbiprofen]
IC50 [3]: 350 µM

SMILES: CC(C)Cc1ccc(C(C)C(=O)O)cc1 (stereo not shown) [ibuprofen]
IC50 [3]: 350 µM

SMILES: CC12CC3CC(C)(C1)CC(N)(C3)C2 [memantine]
inhibition of ASIC1a (ASIC1a): inhibit ASIC1a in submillimolar concentrations

IC50 (rat ASIC1a): 297 ± 41 µM | maximal current block, ASIC1a (rat ASIC1a; pH 7.4 to 5.5): 100% | IC50 (rat ASIC3): 241 ± 25 µM | maximal current block, ASIC3 (rat ASIC3; pH 7.4 to 5.5): 100%
SMILES: O=C(O)CC(OC(=O)C1=Cc2cc(O)c(O)cc2C(c2ccc(O)c(O)c2)C1C(=O)OC(CC(=O)O)C(=O)O)C(=O)O (stereo not shown) [s590, 2,2′-((1-(3,4-dihydroxyphenyl)-6,7-dihydroxy-1,2-dihydronaphthalene-2,3-dicarbonyl)bis(oxy))disuccinic acid]

activity on ASIC1a channel (rat ASIC1a; pH 7.4 to 5.5): did not demonstrate any activity | activity on ASIC3 channel (rat ASIC3; pH 7.4 to 5.5): did not demonstrate any activity
SMILES: COC(=O)CC(C(=O)OC)C(OC(=O)C1=Cc2cc(O)c(O)cc2C(c2ccc(O)c(O)c2)C1C(=O)OC(C(=O)OC)C(CC(=O)OC)C(=O)OC)C(=O)OC (stereo not shown) [s788, Hexamethyl1,1′-((1-(3,4-dihydroxyphenyl)-6,7-dihydroxy-1,2-dihydronaphthalene-2,3-dicarbonyl)bis(oxy))bis(propane-1,2,3-tricarboxylate)]
